Laboratory results taken from ChEMBL document CHEMBL1201862, “PubChem BioAssay data set” (2004).
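Briefly, cells in 96-well plates were exposed to five compound concentrations for 48 h, and endpoints were estimated by linear interpolation. GI50 is the concentration that inhibits growth by half.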 Active and inactive are the calls of the source. No stated cut-off is given here; in the data, active = GI50 up to about 1.1 µM and inactive = higher.

Key:
Experiment in all cases: NCI anticancer screen, dose series, 48 h
SNB-19 = system: SNB-19
HCC 2998 = system: HCC 2998
SW-620 = system: SW-620
TK-10 = system: TK-10
786-0 = system: 786-0
SN12C = system: SN12C
SF-539 = system: SF-539
U-251 = system: U-251
ACHN = system: ACHN
EKVX = system: EKVX
SK-MEL-2 = system: SK-MEL-2
NCI-H226 = system: NCI-H226
MOLT-4 = system: MOLT-4
UACC-62 = system: UACC-62
UO-31 = system: UO-31

Measured: GI50

CCOC(=O)[C@H]1Nc2ccc(Cl)cc2[C@H]2CCC[C@@H]12
inactive: SNB-19 > 100 µM | HCC 2998 > 100 µM | SW-620 > 100 µM | TK-10 > 100 µM | 786-0 > 100 µM | SN12C > 100 µM | SF-539 > 100 µM | U-251 > 100 µM | ACHN > 100 µM | EKVX 92.3 µM | SK-MEL-2 > 100 µM | NCI-H226 > 100 µM | MOLT-4 > 100 µM | UACC-62 > 100 µM | UO-31 99.8 µM

Nc1ccc(C2=Nc3ccccc3SC(c3ccccc3O)C2)cc1 (stereo not given)
inactive: SNB-19 43.1 µM | HCC 2998 32.1 µM | SW-620 33.7 µM | TK-10 > 100 µM | 786-0 28.8 µM | SN12C 45.5 µM | SF-539 38.2 µM | U-251 45.5 µM | ACHN 42.2 µM | EKVX 99.8 µM | SK-MEL-2 > 100 µM | NCI-H226 33.3 µM | MOLT-4 19.8 µM | UACC-62 38.8 µM | UO-31 29.8 µM

CN1C(=O)c2cccc3c([N+](=O)[O-])ccc(c23)C1=O
inactive: SNB-19 14.2 µM | HCC 2998 6 µM | SW-620 2.43 µM | TK-10 3.86 µM | 786-0 8.85 µM | SN12C 12.4 µM | SF-539 13.2 µM | U-251 3.7 µM | ACHN 10.1 µM | EKVX 13.7 µM | SK-MEL-2 10.8 µM | NCI-H226 1.56 µM | MOLT-4 5.55 µM | UACC-62 1.77 µM | UO-31 13.7 µM

C[C@H]1[C@H](C)CC[C@]2(C(=O)O)CCC3(COC(=O)/C=C/c4ccc(O)cc4)C(=CCC4[C@@]5(C)CC[C@H](O)C(C)(C)C5CC[C@]43C)[C@H]12 (stereo not given in full)
inactive: SNB-19 5.11 µM | HCC 2998 5.45 µM | SW-620 3.36 µM | TK-10 10.5 µM | 786-0 5.16 µM | SN12C 5.68 µM | SF-539 4.17 µM | U-251 2.33 µM | ACHN 2.69 µM | EKVX 11 µM | SK-MEL-2 19.1 µM | NCI-H226 7.91 µM | MOLT-4 3.52 µM | UACC-62 9.4 µM | UO-31 4.82 µM

COc1ccc(/C(Cl)=C(\C=O)c2ccc(Br)cc2)cc1OC
inactive: SNB-19 26.3 µM | HCC 2998 > 100 µM | SW-620 > 100 µM | TK-10 > 92.3 µM | 786-0 27.7 µM | SN12C > 100 µM | SF-539 26.1 µM | U-251 32.8 µM | ACHN > 72.6 µM | EKVX > 48.4 µM | SK-MEL-2 16.5 µM | NCI-H226 19.5 µM | MOLT-4 4.27 µM | UACC-62 33.7 µM | UO-31 > 100 µM

Cc1ccc(/C=C(\C#N)c2ccccc2)cc1
inactive: HCC 2998 > 100 µM | SW-620 > 100 µM | TK-10 > 100 µM | 786-0 > 100 µM | SN12C > 100 µM | SF-539 > 100 µM | U-251 > 100 µM | ACHN > 100 µM | SK-MEL-2 > 100 µM | NCI-H226 > 100 µM | MOLT-4 > 100 µM | UACC-62 > 100 µM | UO-31 > 100 µM

Cc1ccc(S(=O)(=O)ON/N=C2/C3OC3[C@@H]3CCCC[C@H]23)cc1 (stereo not given in full)
inactive: SNB-19 > 100 µM | HCC 2998 71.4 µM | SW-620 > 100 µM | TK-10 > 100 µM | 786-0 > 100 µM | SN12C > 100 µM | SF-539 > 100 µM | U-251 > 100 µM | ACHN > 100 µM | EKVX > 100 µM | SK-MEL-2 > 100 µM | NCI-H226 > 100 µM | MOLT-4 > 100 µM | UACC-62 > 100 µM | UO-31 > 100 µM

Nc1ncnc2c1ncn2C1OC(CSC(F)F)C(O)C1O (stereo not given)
inactive: HCC 2998 > 100 µM | SW-620 > 100 µM | TK-10 > 100 µM | 786-0 > 100 µM | SN12C > 100 µM | SF-539 > 100 µM | U-251 > 100 µM | ACHN > 100 µM | EKVX > 100 µM | SK-MEL-2 > 100 µM | NCI-H226 > 100 µM | MOLT-4 > 100 µM | UACC-62 > 100 µM | UO-31 > 100 µM

C#CCSc1nc(N)c2ncn(C3OC(COP(=O)(O)O)C(O)C3O)c2n1 (stereo not given)
inactive: SNB-19 > 239 µM | HCC 2998 > 239 µM | SW-620 > 239 µM | TK-10 > 239 µM | 786-0 > 239 µM | SN12C > 239 µM | SF-539 > 239 µM | ACHN > 239 µM | EKVX > 239 µM | SK-MEL-2 > 239 µM | NCI-H226 > 239 µM | MOLT-4 > 239 µM | UACC-62 > 239 µM | UO-31 > 239 µM

CCOc1ccc2nc(NC(=O)C(=O)C(C#N)CC(C)(C)C=O)sc2c1 (stereo not given)
inactive: SNB-19 > 100 µM | HCC 2998 > 100 µM | TK-10 > 100 µM | 786-0 > 100 µM | SN12C > 100 µM | SF-539 75.7 µM | U-251 > 100 µM | ACHN > 100 µM | EKVX > 100 µM | SK-MEL-2 > 100 µM | NCI-H226 > 100 µM | MOLT-4 > 100 µM | UACC-62 > 100 µM | UO-31 > 100 µM
